Source: patent US7462600B2, “Macrolides” (Pfizer Inc, priority 2004, dated 2008)
Values after ≈ are worked out from the molar mass of the structure shown.

Columns and labels:
Format in all cases: cell-based
[1] = tested on: Streptococcus pyogenes 1079; assay: MIC, microtiter broth dilution (NCCLS M100-S14), S. pyogenes 1079 (ermB); conditions: Streptococcus pyogenes 1079
Procedure, shortened: (§1)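 Microtiter broth dilution; interpretation per NCCLS M100-S14; endpoint = MIC. Stock: 40 mg/ml in DMSO.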

[2] = tested on: Haemophilus influenzae 1218; assay: MIC, microtiter broth dilution (NCCLS M100-S14), H. influenzae 1218 (susceptible); conditions: Haemophilus influenzae 1218
Procedure, shortened: as §1

[3] = tested on: Streptococcus pneumoniae 1175; conditions: Streptococcus pneumoniae 1175; microtiter broth dilution
Procedure, shortened: as §1

[4] = tested on: Streptococcus pneumoniae 1095; conditions: Streptococcus pneumoniae 1095; microtiter broth dilution
Procedure, shortened: as §1

[5] = tested on: Streptococcus pneumoniae 1016; assay: MIC, microtiter broth dilution (NCCLS M100-S14), S. pneumoniae 1016 (susceptible); conditions: Streptococcus pneumoniae 1016
Procedure, shortened: as §1

Row | Structure (SMILES) | MIC S. pyogenes 1079 [1] [µg/mL] | MIC H. influenzae 1218 [2] [µg/mL] | MIC S. pneumo. 1175 [3] [µg/mL] | MIC S. pneumo. 1095 [4] [µg/mL] | MIC S. pneumo. 1016 [5] [µg/mL]
1 | CCC1OC(=O)C(C)C(=O)C(C)C(OC2OC(C)CC(N(C)C)C2O)C(C)(OC)CC(C)C(=O)C(C)C2N(C3CN(S(=O)(=O)c4cncc(-c5cnco5)c4)C3)C(=O)OC12C (centres unmarked) [Example 3.75] | 16 (≈ 18.3 µM) | 1 (≈ 1.14 µM) | <0.06 | <0.06 | <0.06
2 | CCC1OC(=O)C(C)C(=O)C(C)C(OC2OC(C)CC(N(C)C)C2O)C(C)(OC)CC(C)C(=O)C(C)C2N(C3CN(S(=O)(=O)c4ccc(-c5nncs5)cc4)C3)C(=O)OC12C (centres unmarked) [Example 3.76, 3-descladinosyl-11,12-dideoxy-6-O-methyl-3-oxo-12,11-(oxycarbonyl-(1-(4-(1,3,4-thiadiazol-2-yl)benzenesulfonyl)-azetidin-3-yl)-imino)-erythromycin A] | 0.12 (≈ 0.135 µM) | 0.5 (≈ 0.56 µM) | <0.06 | <0.06 | <0.06
3 | CCC1OC(=O)C(C)C(=O)C(C)C(OC2OC(C)CC(N(C)C)C2O)C(C)(OC)CC(C)C(=O)C(C)C2N(C3CN(S(=O)(=O)c4ccc(F)c(C#N)c4)C3)C(=O)OC12C (centres unmarked) [Example 3.77, 3-descladinosyl-11,12-dideoxy-6-O-methyl-3-oxo-12,11-(oxycarbonyl-(1-(3-cyano-4-fluorobenzenesulfonyl)-azetidin-3-yl)-imino)-erythromycin A] | 8 (≈ 9.4 µM) | 1 (≈ 1.18 µM) | <0.06 | <0.06 | <0.06
4 | CCC1OC(=O)C(C)C(=O)C(C)C(OC2OC(C)CC(N(C)C)C2O)C(C)(OC)CC(C)C(=O)C(C)C2N(C3CN(S(=O)(=O)c4ccc(-c5ccc(Cl)nn5)cc4)C3)C(=O)OC12C (centres unmarked) [Example 3.78] | 64 (≈ 69.5 µM) | 4 (≈ 4.35 µM) | <0.06 | <0.06 | <0.06
5 | CCC1OC(=O)C(C)C(=O)C(C)C(OC2OC(C)CC(N(C)C)C2O)C(C)(OC)CC(C)C(=O)C(C)C2N(C3CN(S(=O)(=O)c4ccc5ncsc5c4)C3)C(=O)OC12C (centres unmarked) [Example 3.79] | 1 (≈ 1.16 µM) | 0.25 (≈ 0.289 µM) | <0.06 | <0.06 | <0.06
6 | CCC1OC(=O)C(C)C(=O)C(C)C(OC2OC(C)CC(N(C)C)C2O)C(C)(OC)CC(C)C(=O)C(C)C2N(C3CN(S(=O)(=O)c4cncc(-n5cccn5)c4)C3)C(=O)OC12C (centres unmarked) [Example 3.80, 3-descladinosyl-11,12-dideoxy-6-O-methyl-3-oxo-12,11-(oxycarbonyl-(1-(5-(1H-pyrazol-1-yl)pyridine-3-sulfonyl)-azetidin-3-yl)-imino)erythromycin A] | 4 (≈ 4.57 µM) | >64.00 | <0.06 | <0.06 | <0.06
7 | CCC1OC(=O)C(C)C(=O)C(C)C(OC2OC(C)CC(N(C)C)C2O)C(C)(OC)CC(C)C(=O)C(C)C2N(C3CN(S(=O)(=O)c4ccc(-n5ccnc5)c(F)c4)C3)C(=O)OC12C (centres unmarked) [Example 3.81, 3-descladinosyl-11,12-dideoxy-4-O-methyl-3-oxo-12,11-(oxycarbonyl-(1-(3-fluoro-4-(1H-imidazol-1-yl)benzenesulfonyl)-azetidin-3-yl)-imino)-erythromycin A] | 4 (≈ 4.48 µM) | 1 (≈ 1.12 µM) | <0.06 | <0.06 | <0.06
8 | CCC1OC(=O)C(C)C(=O)C(C)C(OC2OC(C)CC(N(C)C)C2O)C(C)(OC)CC(C)C(=O)C(C)C2N(C3CN(S(=O)(=O)c4ccc(-n5ccnc5)cc4)C3)C(=O)OC12C (centres unmarked) [Example 3.82, 3-descladinosyl-11,12-dideoxy-6-O-methyl-3-oxo-12,11-(oxycarbonyl-(1-(4-(1H-imidazol-1-yl)benzenesulfonyl)-azetidin-3-yl)-imino)erythromycin A] | 2 (≈ 2.29 µM) | 0.25 (≈ 0.286 µM) | <0.06 | <0.06 | <0.06
9 | CCC1OC(=O)C(C)C(=O)C(C)C(OC2OC(C)CC(N(C)C)C2O)C(C)(OC)CC(C)C(=O)C(C)C2N(C3CN(S(=O)(=O)c4ccc5c(c4)CCC5)C3)C(=O)OC12C (centres unmarked) [Example 3.83] | 32 (≈ 37.7 µM) | 1 (≈ 1.18 µM) | <0.06 | <0.06 | <0.06
10 | CCC1OC(=O)C(C)C(=O)C(C)C(OC2OC(C)CC(N(C)C)C2O)C(C)(OC)CC(C)C(=O)C(C)C2N(C3CN(S(=O)(=O)c4ccc(-c5nnn[nH]5)cc4)C3)C(=O)OC12C (centres unmarked) [Example 3.84, 4-(1H-tetrazol-5-yl)benzenesulfonyl] | >64.00 | 32 (≈ 36.5 µM) | 16 (≈ 18.3 µM) | >64.00 | 1 (≈ 1.14 µM)
11 | CCC1OC(=O)C(C)C(=O)C(C)C(OC2OC(C)CC(N(C)C)C2O)C(C)(OC)CC(C)C(=O)C(C)C2N(C3CN(S(=O)(=O)c4ccc5cn[nH]c5c4)C3)C(=O)OC12C (centres unmarked) [Example 3.85, 3-descladinosyl-11,12-dideoxy-6-O-methyl-3-oxo-12,11-(oxycarbonyl-(1-(1H-indazole-6-sulfonyl)-azetidin-3-yl)-imino)-erythromycin A] | 1 (≈ 1.18 µM) | 0.25 (≈ 0.295 µM) | <0.06 | <0.06 | <0.06
12 | CCC1OC(=O)C(C)C(=O)C(C)C(OC2OC(C)CC(N(C)C)C2O)C(C)(OC)CC(C)C(=O)C(C)C2N(C3CN(S(=O)(=O)c4ccc(-n5cccn5)c(F)c4)C3)C(=O)OC12C (centres unmarked) [Example 3.86, 3-descladinosyl-11,12-dideoxy-6-O-methyl-3-oxo-12,11-(oxycarbonyl-(1-(3-fluoro-4-(1H-pyrazol-1-yl)benzenesulfonyl)-azetidin-3-yl)-imino)-erythromycin A] | 1 (≈ 1.12 µM) | 1 (≈ 1.12 µM) | <0.06 | <0.06 | <0.06
13 | CCC1OC(=O)C(C)C(=O)C(C)C(OC2OC(C)CC(N(C)C)C2O)C(C)(OC)CC(C)C(=O)C(C)C2N(C3CN(S(=O)(=O)c4ccc5[nH]ncc5c4)C3)C(=O)OC12C (centres unmarked) [Example 3.87, 3-descladinosyl-11,12-dideoxy-6-O-methyl-3-oxo-12,11-(oxycarbonyl-(1-(1H-indazole-5-sulfonyl)-azetidin-3-yl)-imino)-erythromycin A] | 0.19 (≈ 0.224 µM) | 0.19 (≈ 0.224 µM) | <0.06 | <0.06 | <0.06
